Test results taken from the NIST ThermoML archive (doi:10.1021/je060475r).
Numbers after ± are expanded uncertainties.

How the values were obtained:
[1] = 101 kPa, Liquid
[2] = xn = mol fraction of the nth substance listed; conditions: 101 kPa, Liquid

Cc1ccccc1 [toluene]
[1]
Conditions	mass density [kg/m3]	viscosity [mPa·s]
298.15 K	861.65 ± 1.4	0.553 ± 0.03
303.15 K	857.01 ± 1.4	0.522 ± 0.029
313.15 K	847.63 ± 1.5	0.467 ± 0.026
323.15 K	838.23 ± 1.5	0.421 ± 0.024
333.15 K	828.71 ± 1.6	0.381 ± 0.023
343.15 K	819.86 ± 1.6	0.349 ± 0.021
353.15 K	809.68 ± 1.7	0.321 ± 0.02

O=CN1CCOCC1 [N-formylmorpholine]
[1]
Conditions	mass density [kg/m3]	viscosity [mPa·s]
298.15 K	1146.06 ± 1.5	7.955 ± 0.31
303.15 K	1141.7 ± 1.4	6.877 ± 0.28
313.15 K	1132.96 ± 1.4	5.214 ± 0.22
323.15 K	1124.33 ± 1.3	4.08 ± 0.18
333.15 K	1115.63 ± 1.3	3.284 ± 0.15
343.15 K	1107.96 ± 1.2	2.707 ± 0.12
353.15 K	1098.76 ± 1.2	2.274 ± 0.1

O=CN1CCOCC1 [N-formylmorpholine] + c1ccccc1
[2]
Conditions	mass density [kg/m3]	viscosity [mPa·s]
298.15 K, x2 = 0	1146.06 ± 1.5	7.955 ± 0.31
298.15 K, x2 = 0.0977	1124.83 ± 1.3	6.078 ± 0.25
298.15 K, x2 = 0.198	1101.75 ± 1.2	4.597 ± 0.2
298.15 K, x2 = 0.2987	1077.06 ± 1	3.524 ± 0.16
298.15 K, x2 = 0.4013	1051.67 ± 0.85	2.656 ± 0.12
298.15 K, x2 = 0.4983	1027.35 ± 0.69	2.051 ± 0.094
298.15 K, x2 = 0.599	1001.36 ± 0.53	1.602 ± 0.075
298.15 K, x2 = 0.6999	970.18 ± 0.7	1.234 ± 0.059
298.15 K, x2 = 0.802	938.33 ± 0.9	0.96 ± 0.048
298.15 K, x2 = 0.8967	908.12 ± 1.1	0.76 ± 0.039
303.15 K, x2 = 0	1141.7 ± 1.4	6.877 ± 0.28
303.15 K, x2 = 0.0977	1120.44 ± 1.3	5.251 ± 0.23
303.15 K, x2 = 0.198	1097.28 ± 1.1	4.028 ± 0.18
303.15 K, x2 = 0.2987	1072.53 ± 0.99	3.109 ± 0.14
303.15 K, x2 = 0.4013	1046.95 ± 0.82	2.376 ± 0.11
303.15 K, x2 = 0.4983	1022.6 ± 0.66	1.858 ± 0.086
303.15 K, x2 = 0.599	996.29 ± 0.54	1.456 ± 0.069
303.15 K, x2 = 0.6999	965.22 ± 0.73	1.13 ± 0.055
303.15 K, x2 = 0.802	933.24 ± 0.93	0.884 ± 0.044
303.15 K, x2 = 0.8967	902.85 ± 1.1	0.706 ± 0.037
313.15 K, x2 = 0	1132.96 ± 1.4	5.214 ± 0.22
313.15 K, x2 = 0.0977	1111.6 ± 1.2	4.059 ± 0.18
313.15 K, x2 = 0.198	1088.31 ± 1.1	3.174 ± 0.14
313.15 K, x2 = 0.2987	1063.41 ± 0.93	2.492 ± 0.11
313.15 K, x2 = 0.4013	1037.61 ± 0.76	1.946 ± 0.09
313.15 K, x2 = 0.4983	1013.15 ± 0.61	1.538 ± 0.072
313.15 K, x2 = 0.599	986.09 ± 0.61	1.217 ± 0.059
313.15 K, x2 = 0.6999	955.16 ± 0.79	0.962 ± 0.048
313.15 K, x2 = 0.802	922.97 ± 0.99	0.759 ± 0.039
313.15 K, x2 = 0.8967	892.39 ± 1.2	0.613 ± 0.033
323.15 K, x2 = 0	1124.33 ± 1.3	4.08 ± 0.18
323.15 K, x2 = 0.0977	1102.85 ± 1.2	3.23 ± 0.14
323.15 K, x2 = 0.198	1079.44 ± 1	2.568 ± 0.12
323.15 K, x2 = 0.2987	1054.39 ± 0.87	2.046 ± 0.094
323.15 K, x2 = 0.4013	1028.33 ± 0.71	1.614 ± 0.076
323.15 K, x2 = 0.4983	1003.64 ± 0.55	1.296 ± 0.062
323.15 K, x2 = 0.599	975.97 ± 0.67	1.037 ± 0.051
323.15 K, x2 = 0.6999	945.02 ± 0.86	0.826 ± 0.042
323.15 K, x2 = 0.802	912.7 ± 1.1	0.66 ± 0.035
323.15 K, x2 = 0.8967	881.97 ± 1.2	0.538 ± 0.029
333.15 K, x2 = 0	1115.63 ± 1.3	3.284 ± 0.15
333.15 K, x2 = 0.0977	1094.03 ± 1.1	2.636 ± 0.12
333.15 K, x2 = 0.198	1070.44 ± 0.98	2.124 ± 0.097
333.15 K, x2 = 0.2987	1045.28 ± 0.82	1.715 ± 0.08
333.15 K, x2 = 0.4013	1018.97 ± 0.65	1.371 ± 0.065
333.15 K, x2 = 0.4983	993.97 ± 0.56	1.11 ± 0.054
333.15 K, x2 = 0.599	966 ± 0.73	0.898 ± 0.045
333.15 K, x2 = 0.6999	934.99 ± 0.92	0.721 ± 0.037
333.15 K, x2 = 0.802	902.37 ± 1.1	0.54 ± 0.03
333.15 K, x2 = 0.8967	871.42 ± 1.3	0.479 ± 0.027
343.15 K, x2 = 0	1107.96 ± 1.2	2.707 ± 0.12
343.15 K, x2 = 0.0977	1086.23 ± 1.1	2.201 ± 0.1
343.15 K, x2 = 0.198	1062.45 ± 0.93	1.798 ± 0.083
343.15 K, x2 = 0.2987	1037.1 ± 0.77	1.466 ± 0.069
343.15 K, x2 = 0.4013	1010.54 ± 0.59	1.183 ± 0.057
343.15 K, x2 = 0.4983	985.32 ± 0.61	0.966 ± 0.048
343.15 K, x2 = 0.599	956.77 ± 0.79	0.787 ± 0.04
343.15 K, x2 = 0.6999	925.78 ± 0.98	0.637 ± 0.034
343.15 K, x2 = 0.802	892.86 ± 1.2	0.518 ± 0.029
343.15 K, x2 = 0.8967	861.54 ± 1.4	0.428 ± 0.025

c1ccccc1 [benzene]
[1]
Conditions	mass density [kg/m3]	viscosity [mPa·s]
298.15 K	873.57 ± 1.3	0.601 ± 0.032
303.15 K	868.24 ± 1.3	0.562 ± 0.031
313.15 K	857.34 ± 1.4	0.493 ± 0.028
323.15 K	846.59 ± 1.5	0.436 ± 0.025
333.15 K	835.75 ± 1.5	0.389 ± 0.023
343.15 K	824.98 ± 1.6	0.354 ± 0.022

Cc1ccccc1 [toluene] + O=CN1CCOCC1
[2], x1 = 1
Conditions	mass density [kg/m3]	viscosity [mPa·s]
298.15 K	861.65 ± 1.4	0.553 ± 0.03
303.15 K	857.01 ± 1.4	0.522 ± 0.029
313.15 K	847.63 ± 1.5	0.467 ± 0.026
323.15 K	838.23 ± 1.5	0.421 ± 0.024
333.15 K	828.71 ± 1.6	0.381 ± 0.023
343.15 K	819.86 ± 1.6	0.349 ± 0.021
353.15 K	809.68 ± 1.7	0.321 ± 0.02

c1ccccc1 [benzene] + O=CN1CCOCC1
[2], x1 = 1
Conditions	mass density [kg/m3]	viscosity [mPa·s]
298.15 K	873.57 ± 1.3	0.601 ± 0.032
303.15 K	868.24 ± 1.3	0.562 ± 0.031
313.15 K	857.34 ± 1.4	0.493 ± 0.028
323.15 K	846.59 ± 1.5	0.436 ± 0.025
333.15 K	835.75 ± 1.5	0.389 ± 0.023
343.15 K	824.98 ± 1.6	0.354 ± 0.022
